Three compounds from US9163007B2, “5-substituted indazoles as kinase inhibitors” (AbbVie Inc., priority 2007, dated 2015) can be followed below.

One experiment relates to Balb/c mice. Description: Murine model of acute asthma: airway hyperresponsiveness (lung resistance). The following applies: OVA-challenged mice. The class given is in vivo, mouse. From the text:
Murine Asthma Model of Acute Asthma
Female Balb/c mice were purchased from Taconic and housed at Abbott Bioresearch Center. Animals were utilized at 8-12 weeks of age. All protocols were approved by the Institutional Animal Care and Use Committee (IACUC). Dexamethasone (Dex), and ovalbumin (OVA) were purchased from Sigma. Endotoxin was removed from ovalbumin using DetoxiGel (Pierce) according to manufacturer's protocol and the final material contained less than 0.1 EU/mg protein. Alum Imject was purchased from Pierce.
Animals were sensitized to OVA on day 0 and 7 with an i.p. injection of 8 μg OVA in 2 mg alum. On days 14 and 16, animals received intra-nasal challenge of 0.3 μg OVA in 50 μl sterile PBS. […] All endpoints were analyzed on day 17, 24 hours after the second OVA challenge. AHR was assessed using unconscious restrained whole body plethysmography. […] Pressure in the lung and flow within the plethysmograph were measured using transducers, and lung resistance was calculated as pressure/flow using Biosystem Xa software. Baseline resistance as well as resistance following challenge with methacholine (3, 10 or 30 mg/mL) that was delivered with an inline ultrasonic-nebulizer were measured. […] Lavage fluid was analyzed for IL-13, AMCase, Muc5ac and cellular infiltrates. […]

In the next experiment the test system is IL-13. Description: Murine asthma model: IL-13 measurement in bronchoalveolar lavage fluid. The class given is in vivo, mouse. On the procedure:
(§1) Animals were sensitized to OVA on day 0 and 7 with an i.p. injection of 8 μg OVA in 2 mg alum. On days 14 and 16, animals received intra-nasal challenge of 0.3 μg OVA in 50 μl sterile PBS. Animals were dosed i.p. with a representative compound of formula (I), Example 179, (dissolved with 0.5% HMPC, 0.02% Tween 80 in water) twice per day at doses of 3, 10, and 30 mg/kg/dose beginning the afternoon of day 13. The final dose of compound was administered 30 minutes prior to measurement of airway hyperresponsiveness (AHR). Dexamethasone was administered orally once a day on days 13-17 at a dose of 3 mg/kg. All endpoints were analyzed on day 17, 24 hours after the second OVA challenge. AHR was assessed using unconscious restrained whole body plethysmography. Briefly, a surgical plane of anesthesia was induced with an i.p. injection of ketamine and xylazine. A tracheal canula was surgically inserted between the third and fourth tracheal rings. Spontaneous breathing was prevented by an intravenous (i.v.) jugular vein injection of pancuronium bromide. Animals were placed in a whole body plethysmograph (Buxco) and mechanically ventilated with 0.2 mL room air at 150 breaths per minute with a volume-controlled ventilator (Harvard Apparatus). Pressure in the lung and flow within the plethysmograph were measured using transducers, and lung resistance was calculated as pressure/flow using Biosystem Xa software. Baseline resistance as well as resistance following challenge with methacholine (3, 10 or 30 mg/mL) that was delivered with an inline ultrasonic-nebulizer were measured. Upon completion of pulmonary function testing, the lungs were lavaged 4 times with 0.5 mL sterile PBS. Lavage fluid was analyzed for IL-13, AMCase, Muc5ac and cellular infiltrates. The efficacy of the test compound was tested at doses of 3, 10 and 30 mg/kg b.i.d. (6, 20, 60 mg/kg/day). […]
IL-13 concentrations in the bronchoalveolar lavage fluid (BAL) were measured by ELISA (R & D Systems) according to manufacturer's instructions.

Experiment [1] deals with Acidic mammalian chitinase (AMCase). Description: Murine asthma model: AMCase measurement in BAL fluid. It counts as in vivo, mouse. The settings on record: 30 mg/kg group, p<0.01. On the procedure: as §1, with “Spontaneous breathing was prevented by an intravenous (i.v.) jugular vein injection of pancuronium bromide. Animals were placed in a whole body plethysmograph (Buxco) and mechanically ventilated with 0.2 mL room air at 150 breaths per minute with a volume-controlled ventilator (Harvard Apparatus).” left out, “Upon completion of pulmonary function testing, the lungs were lavaged 4 times with 0.5 mL sterile PBS.” left out, “infiltrates.” for “infiltrates. The efficacy of the test compound was tested at doses of 3, 10 and 30 mg/kg b.i.d. (6, 20, 60 mg/kg/day).”

Another experiment deals with MUC5AC. As to the kind of experiment: Murine asthma model: MUC5AC measurement in BAL. It counts as in vivo, mouse. Also on record: dose or concentration left out as unconfirmed. On the procedure:
Animals were sensitized to OVA on day 0 and 7 with an i.p. injection of 8 μg OVA in 2 mg alum. On days 14 and 16, animals received intra-nasal challenge of 0.3 μg OVA in 50 μl sterile PBS. […] The final dose of compound was administered 30 minutes prior to measurement of airway hyperresponsiveness (AHR). Dexamethasone was administered orally once a day on days 13-17 at a dose of 3 mg/kg. All endpoints were analyzed on day 17, 24 hours after the second OVA challenge. AHR was assessed using unconscious restrained whole body plethysmography. Briefly, a surgical plane of anesthesia was induced with an i.p. injection of ketamine and xylazine. A tracheal canula was surgically inserted between the third and fourth tracheal rings. […] Pressure in the lung and flow within the plethysmograph were measured using transducers, and lung resistance was calculated as pressure/flow using Biosystem Xa software. Baseline resistance as well as resistance following challenge with methacholine (3, 10 or 30 mg/mL) that was delivered with an inline ultrasonic-nebulizer were measured. […] Lavage fluid was analyzed for IL-13, AMCase, Muc5ac and cellular infiltrates. […]
Concentrations of the mucin gene MUC5AC were quantitated by ELISA format. […] The reaction was stopped using 1M H2SO4 and then read in a spectrophotometer at OD 450 nm.

In experiment [2] the test system is rats. As to the kind of experiment: Spinal nerve (L5/L6) ligation model of neuropathic pain (Chung). It counts as in vivo, rat. The settings on record: i.p. or p.o., doses ranging from 1-150 mg/kg. The text has this:
Spinal Nerve (L5/L6) Ligation Model of Neuropathic Pain.
As previously described in detail by Kim and Chung (Kim S. H.; Chung J. M. An experimental model for peripheral neuropathy produced by segmental spinal nerve ligation in the rat. Pain 1992, 50, 355-363), a 1.5 cm incision was made dorsal to the lumbosacral plexus. In anesthetized rats, the paraspinal muscles (left side) were separated from the spinous processes, the L5 and L6 spinal nerves isolated, and tightly ligated with 3-0 silk threads. Following hemostasis, the wound was sutured and coated with antibiotic ointment. The rats were allowed to recover and then placed in a cage with soft bedding for 14 days before behavioral testing for mechanical allodynia.

Experiment [3] concerns rats. Description: Sciatic nerve ligation model of neuropathic pain (Bennett). The class given is in vivo, rat. The following applies: i.p. or p.o., doses ranging from 1-150 mg/kg. The text has this: Sciatic Nerve Ligation Model of Neuropathic Pain.
As previously described in detail by Bennett and Xie (Bennett G. J.; Xie Y-K. A peripheral mononeuropathy in rat that produces disorders of pain sensation like those seen in man. Pain 1988, 33, 87-107), in anesthetized rats, a 1.5 cm incision was made 0.5 cm below the pelvis and the biceps femoris and the gluteous superficialis (right side) were separated. The sciatic nerve was exposed, isolated, and four loose ligatures (5-0 chromic catgut) with 1 mm spacing were placed around it. The rats were allowed to recover and then placed in a cage with soft bedding for 14 days before behavioral testing for mechanical allodynia as described above. In addition, animals were also tested for cold allodynia by dipping their hind paw in a cold-water bath (4.5° C.) and determining the paw withdrawal latency.

Each structure is given as a SMILES string. Where “and” joins values, the source holds several entries; their conditions need not be identical. Equal values may be shown once.

On to `O=C(N[C@H](CCO)c1ccccc1)c1cc(-c2ccc3[nH]ncc3c2)on1` [Example 179, N-[(1R)-3-hydroxy-1-phenylpropyl]-5-(1H-indazol-5-yl)isoxazole-3-carboxamide], for which, in the experiment with Balb/c mice (i.p. twice per day, tested 3, 10, 30 mg/kg, printed 'doses ranging between 1 and 100 mg/kg', OVA 6.90, PBS 4.65), the methacholine-induced airways resistance was 4.55 cm H2O/mL/sec and 4.77 cm H2O/mL/sec. The “inhibition of IL-13 induction in BAL fluid” value with IL-13 (3 mg/kg dose group) is recorded as “no significant inhibition”; in the experiment on IL-13 (10 mg/kg dose group) it was “no significant inhibition”; in the experiment with IL-13 (30 mg/kg dose, p<0.05), 60%. In experiment [1], the “inhibition of AMCase activity induction in BAL fluid” value came out at 45%. Further, the “reduction of MUC5AC levels” value in the experiment with MUC5AC turned out to be 35%. For the same compound, the “inhibition of tactile allodynia” value in the experiment with rats [2] and in the experiment with rats [3] was “greater than 30%” in each case.

As to `O=C(N[C@H](CO)c1ccccc1)c1cc(-c2ccc3[nH]ncc3c2)on1` [Example 160, N-[(1S)-2-hydroxy-1-phenylethyl]-5-(1H-indazol-5-yl)isoxazole-3-carboxamide], the “inhibition of tactile allodynia” value with rats [2] and in the experiment with rats [3] was “greater than 30%” each time.

In the experiment on Balb/c mice (3 mg/kg orally once a day), `C[C@@H]1C[C@H]2[C@@H]3CCC4=CC(=O)C=C[C@]4(C)[C@@]3(F)[C@@H](O)C[C@]2(C)[C@@]1(O)C(=O)CO` [dexamethasone, Dexamethasone, reference compound] displayed a methacholine-induced airways resistance of 4.76 cm H2O/mL/sec.
